Three molecules from PMC4854315, “Discovery of a novel allosteric inhibitor-binding site in ERK5: comparison with the canonical kinase hinge ATP-binding site” (Acta Crystallographica. Section D, Structural Biology, 2016) can be followed below.

What all share (experiment): Z'-LYTE kinase panel
What all share (format): biochemical

One assay deals with T1, CLK1 (Homo sapiens, UniProt P49759).
T1 construct: purchased ThermoFisher (SelectScreen, Z'-LYTE)
The method, then: (§1) Compounds 2, 3 and 5 were tested for activity against the 225 kinases in the ThermoFisher standard kinase panel. The standard Z′-LYTE assay protocol (ThermoFisher) was used to measure the percentage inhibition at 10 µM compound concentration (details are provided in the supporting information).

The target in another assay is T2, MAP2K6 (MKK6) (Homo sapiens, UniProt P52564).
T2 construct: purchased ThermoFisher (SelectScreen, Z'-LYTE)
T2 sequence (P52564 1-334): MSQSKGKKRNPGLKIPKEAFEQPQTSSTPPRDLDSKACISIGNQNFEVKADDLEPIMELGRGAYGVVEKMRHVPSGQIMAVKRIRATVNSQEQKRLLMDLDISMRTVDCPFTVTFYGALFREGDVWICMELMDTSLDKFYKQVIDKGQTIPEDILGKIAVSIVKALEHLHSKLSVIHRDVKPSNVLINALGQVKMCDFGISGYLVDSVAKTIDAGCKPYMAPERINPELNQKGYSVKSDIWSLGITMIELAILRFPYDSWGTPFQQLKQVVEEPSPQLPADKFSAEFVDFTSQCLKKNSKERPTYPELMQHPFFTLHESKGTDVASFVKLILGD
The following applies: 10 µM compound; ATP 100. The method, then:
as §1

The target of the next assay is T3, PTK2B (FAK2) (Homo sapiens, UniProt Q14289).
T3 construct: purchased ThermoFisher (SelectScreen, Z'-LYTE)
T3 sequence (Q14289 whole entry): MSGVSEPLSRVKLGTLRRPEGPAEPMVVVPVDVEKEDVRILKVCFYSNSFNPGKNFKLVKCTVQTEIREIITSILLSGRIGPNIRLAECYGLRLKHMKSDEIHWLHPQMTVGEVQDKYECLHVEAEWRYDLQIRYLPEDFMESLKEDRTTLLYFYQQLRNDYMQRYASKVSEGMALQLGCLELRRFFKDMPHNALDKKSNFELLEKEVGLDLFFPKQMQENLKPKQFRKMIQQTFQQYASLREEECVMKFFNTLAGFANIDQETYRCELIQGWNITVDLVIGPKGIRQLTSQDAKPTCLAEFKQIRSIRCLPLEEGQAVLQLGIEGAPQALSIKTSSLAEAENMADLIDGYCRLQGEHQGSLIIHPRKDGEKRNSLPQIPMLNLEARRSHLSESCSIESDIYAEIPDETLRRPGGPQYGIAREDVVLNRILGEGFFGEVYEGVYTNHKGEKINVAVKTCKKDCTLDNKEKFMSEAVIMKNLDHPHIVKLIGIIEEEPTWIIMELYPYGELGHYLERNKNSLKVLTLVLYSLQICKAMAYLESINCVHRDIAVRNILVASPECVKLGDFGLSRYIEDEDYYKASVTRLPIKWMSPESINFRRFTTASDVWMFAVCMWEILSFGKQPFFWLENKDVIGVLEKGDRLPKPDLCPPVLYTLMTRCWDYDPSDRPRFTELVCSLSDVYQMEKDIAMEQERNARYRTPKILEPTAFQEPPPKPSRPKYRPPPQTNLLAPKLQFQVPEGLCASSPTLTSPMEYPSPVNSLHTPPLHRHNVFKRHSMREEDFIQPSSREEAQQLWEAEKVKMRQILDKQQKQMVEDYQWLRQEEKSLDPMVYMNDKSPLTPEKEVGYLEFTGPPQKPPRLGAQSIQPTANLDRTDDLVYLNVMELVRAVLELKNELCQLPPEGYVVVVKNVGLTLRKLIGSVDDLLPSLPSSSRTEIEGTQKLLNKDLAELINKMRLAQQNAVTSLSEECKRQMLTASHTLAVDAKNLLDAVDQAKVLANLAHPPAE
The method, then: as §1

The next assay has as its target T4, DYRK3 (Homo sapiens, UniProt O43781).
T4 construct: purchased ThermoFisher (SelectScreen, Z'-LYTE)
T4 sequence (O43781 1-588): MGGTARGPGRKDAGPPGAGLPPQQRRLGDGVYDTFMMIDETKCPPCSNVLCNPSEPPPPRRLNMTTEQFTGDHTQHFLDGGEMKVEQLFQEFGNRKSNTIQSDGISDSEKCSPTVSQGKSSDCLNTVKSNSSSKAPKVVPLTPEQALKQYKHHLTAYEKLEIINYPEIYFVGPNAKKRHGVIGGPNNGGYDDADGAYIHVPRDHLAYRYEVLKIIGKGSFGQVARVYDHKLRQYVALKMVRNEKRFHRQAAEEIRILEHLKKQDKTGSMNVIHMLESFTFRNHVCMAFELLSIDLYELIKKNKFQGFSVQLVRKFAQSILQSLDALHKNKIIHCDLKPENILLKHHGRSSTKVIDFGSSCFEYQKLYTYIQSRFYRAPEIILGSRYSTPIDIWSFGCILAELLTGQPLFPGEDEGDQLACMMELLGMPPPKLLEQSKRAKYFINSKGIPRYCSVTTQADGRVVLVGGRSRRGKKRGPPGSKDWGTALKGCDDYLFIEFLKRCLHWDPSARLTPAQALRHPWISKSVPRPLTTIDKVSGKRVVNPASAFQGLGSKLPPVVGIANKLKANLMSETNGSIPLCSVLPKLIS
As to the method: as §1

For a further assay, the target named is T5, AMPK A2/B1/G1 (Homo sapiens, UniProt P54646).
T5 construct: purchased ThermoFisher (SelectScreen, Z'-LYTE)
The method, then:
as §1

The target of a further assay is T6, HCK (Homo sapiens, UniProt P08631).
T6 construct: purchased ThermoFisher (SelectScreen, Z'-LYTE)
T6 sequence (P08631 whole entry): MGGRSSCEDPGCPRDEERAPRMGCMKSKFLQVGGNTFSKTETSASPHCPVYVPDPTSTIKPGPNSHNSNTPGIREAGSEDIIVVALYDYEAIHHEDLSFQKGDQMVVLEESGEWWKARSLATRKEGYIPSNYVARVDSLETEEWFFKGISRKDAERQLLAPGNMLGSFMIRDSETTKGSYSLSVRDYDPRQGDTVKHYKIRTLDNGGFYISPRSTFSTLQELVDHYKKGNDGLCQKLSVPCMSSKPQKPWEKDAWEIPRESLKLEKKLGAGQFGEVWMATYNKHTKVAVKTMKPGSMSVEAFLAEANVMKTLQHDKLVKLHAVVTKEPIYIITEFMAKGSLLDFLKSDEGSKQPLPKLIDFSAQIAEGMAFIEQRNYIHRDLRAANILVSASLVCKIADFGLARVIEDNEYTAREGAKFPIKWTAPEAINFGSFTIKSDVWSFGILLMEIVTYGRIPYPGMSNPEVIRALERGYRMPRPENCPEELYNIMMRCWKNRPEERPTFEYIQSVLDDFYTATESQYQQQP
The method, then: as §1

The target of a further assay is T7, CAMK1D (CaMKI delta) (Homo sapiens, UniProt Q8IU85).
T7 construct: purchased ThermoFisher (SelectScreen, Z'-LYTE)
The method, then: as §1

The target of another assay is T8, MAPKAPK2 (Homo sapiens, UniProt P49137).
T8 construct: purchased ThermoFisher (SelectScreen, Z'-LYTE)
T8 sequence (P49137 whole entry): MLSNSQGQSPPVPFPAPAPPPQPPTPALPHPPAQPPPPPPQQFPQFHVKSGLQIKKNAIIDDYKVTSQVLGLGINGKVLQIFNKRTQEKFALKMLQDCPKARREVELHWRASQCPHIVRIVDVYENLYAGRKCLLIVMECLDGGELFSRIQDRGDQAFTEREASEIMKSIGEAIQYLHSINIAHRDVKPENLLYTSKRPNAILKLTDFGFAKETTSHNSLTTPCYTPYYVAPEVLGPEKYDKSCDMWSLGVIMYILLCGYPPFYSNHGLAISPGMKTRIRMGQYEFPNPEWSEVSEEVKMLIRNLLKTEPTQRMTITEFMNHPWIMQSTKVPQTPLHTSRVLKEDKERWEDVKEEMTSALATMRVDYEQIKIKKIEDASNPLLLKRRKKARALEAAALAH
The method, then:
as §1

The target of a further assay is T9, PAK3 (Homo sapiens, UniProt O75914).
T9 construct: purchased ThermoFisher (SelectScreen, Z'-LYTE)
T9 sequence (O75914 whole entry): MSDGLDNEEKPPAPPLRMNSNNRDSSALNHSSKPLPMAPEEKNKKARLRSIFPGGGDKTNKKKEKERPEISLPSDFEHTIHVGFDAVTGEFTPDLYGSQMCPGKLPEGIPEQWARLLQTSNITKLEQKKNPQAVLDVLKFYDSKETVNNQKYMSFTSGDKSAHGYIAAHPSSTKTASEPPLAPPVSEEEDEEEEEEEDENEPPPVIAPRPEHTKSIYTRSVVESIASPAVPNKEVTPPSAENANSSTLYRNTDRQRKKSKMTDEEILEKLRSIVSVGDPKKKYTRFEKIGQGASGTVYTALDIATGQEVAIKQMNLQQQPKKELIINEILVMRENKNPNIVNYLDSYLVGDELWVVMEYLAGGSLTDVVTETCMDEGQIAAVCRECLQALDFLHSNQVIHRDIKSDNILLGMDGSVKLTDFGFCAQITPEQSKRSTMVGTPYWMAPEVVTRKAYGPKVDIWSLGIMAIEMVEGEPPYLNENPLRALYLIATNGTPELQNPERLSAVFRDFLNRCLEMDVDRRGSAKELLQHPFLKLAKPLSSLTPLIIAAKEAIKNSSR
As to the method:
as §1

The target in another assay is T10, EPHA4 (Homo sapiens, UniProt P54764).
T10 construct: purchased ThermoFisher (SelectScreen, Z'-LYTE)
As to the method:
as §1

Another assay deals with T11, CSF1R (FMS) (Homo sapiens, UniProt P07333).
T11 construct: purchased ThermoFisher (SelectScreen, Z'-LYTE)
T11 sequence (P07333 20-972): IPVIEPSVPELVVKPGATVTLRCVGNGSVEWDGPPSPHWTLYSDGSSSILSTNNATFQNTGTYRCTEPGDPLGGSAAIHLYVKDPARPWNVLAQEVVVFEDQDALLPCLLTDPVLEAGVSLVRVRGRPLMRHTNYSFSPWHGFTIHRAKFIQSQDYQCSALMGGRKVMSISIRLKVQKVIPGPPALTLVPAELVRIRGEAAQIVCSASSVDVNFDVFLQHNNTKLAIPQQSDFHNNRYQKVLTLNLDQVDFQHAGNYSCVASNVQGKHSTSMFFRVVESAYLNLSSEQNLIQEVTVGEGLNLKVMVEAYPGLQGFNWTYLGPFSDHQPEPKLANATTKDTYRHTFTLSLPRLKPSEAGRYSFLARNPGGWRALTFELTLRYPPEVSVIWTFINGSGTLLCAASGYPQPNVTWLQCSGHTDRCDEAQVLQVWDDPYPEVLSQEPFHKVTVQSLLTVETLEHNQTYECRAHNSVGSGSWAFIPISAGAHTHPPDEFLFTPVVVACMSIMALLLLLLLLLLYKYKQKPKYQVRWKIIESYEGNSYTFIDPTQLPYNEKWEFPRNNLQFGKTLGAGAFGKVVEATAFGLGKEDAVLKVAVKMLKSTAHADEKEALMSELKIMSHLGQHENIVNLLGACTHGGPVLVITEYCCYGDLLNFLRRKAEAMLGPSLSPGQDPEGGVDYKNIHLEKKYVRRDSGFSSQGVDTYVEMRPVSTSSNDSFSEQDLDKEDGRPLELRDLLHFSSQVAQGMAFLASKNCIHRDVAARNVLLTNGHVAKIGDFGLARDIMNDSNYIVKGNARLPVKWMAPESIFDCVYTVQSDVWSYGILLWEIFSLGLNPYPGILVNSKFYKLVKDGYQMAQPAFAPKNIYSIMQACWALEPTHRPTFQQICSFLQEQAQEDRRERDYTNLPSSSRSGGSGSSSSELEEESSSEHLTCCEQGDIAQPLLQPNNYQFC
The following applies: 10 µM compound, ATP Km app. As to the method: as §1

The next assay concerns the target T12, STK4 (MST1) (Homo sapiens, UniProt Q13043).
T12 construct: purchased ThermoFisher (SelectScreen, Z'-LYTE)
T12 sequence (Q13043 1-487): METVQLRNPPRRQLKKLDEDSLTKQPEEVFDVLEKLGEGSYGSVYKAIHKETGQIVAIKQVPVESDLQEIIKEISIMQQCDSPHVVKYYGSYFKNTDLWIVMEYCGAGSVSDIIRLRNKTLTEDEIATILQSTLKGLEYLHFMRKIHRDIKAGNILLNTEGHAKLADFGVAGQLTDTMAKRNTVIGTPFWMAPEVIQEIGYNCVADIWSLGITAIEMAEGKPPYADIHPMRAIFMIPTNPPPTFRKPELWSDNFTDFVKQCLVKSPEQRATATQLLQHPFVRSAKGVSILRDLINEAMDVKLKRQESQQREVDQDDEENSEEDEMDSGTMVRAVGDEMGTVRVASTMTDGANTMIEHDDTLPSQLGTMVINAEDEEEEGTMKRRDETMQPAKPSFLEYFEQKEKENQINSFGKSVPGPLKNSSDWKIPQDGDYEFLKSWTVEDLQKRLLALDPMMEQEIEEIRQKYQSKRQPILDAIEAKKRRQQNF
The method, then:
as §1

Another assay addresses T13, JAK2 (Homo sapiens, UniProt O60674).
T13 construct: purchased ThermoFisher (SelectScreen, Z'-LYTE)
The method, then:
as §1

T1 sequence (P49759 whole entry): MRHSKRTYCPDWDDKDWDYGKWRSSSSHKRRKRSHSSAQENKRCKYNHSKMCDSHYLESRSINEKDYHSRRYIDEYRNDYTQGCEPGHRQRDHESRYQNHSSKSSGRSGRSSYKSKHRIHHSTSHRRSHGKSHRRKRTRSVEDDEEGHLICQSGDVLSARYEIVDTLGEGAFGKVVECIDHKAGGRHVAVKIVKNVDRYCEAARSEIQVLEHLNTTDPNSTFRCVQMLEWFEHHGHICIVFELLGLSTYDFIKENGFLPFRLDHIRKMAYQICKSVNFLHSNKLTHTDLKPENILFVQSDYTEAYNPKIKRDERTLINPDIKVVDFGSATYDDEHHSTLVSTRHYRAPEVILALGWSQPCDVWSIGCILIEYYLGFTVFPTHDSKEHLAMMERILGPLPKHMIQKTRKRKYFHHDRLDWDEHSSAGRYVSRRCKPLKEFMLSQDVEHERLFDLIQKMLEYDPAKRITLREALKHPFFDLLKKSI
T13 sequence (O60674 whole entry): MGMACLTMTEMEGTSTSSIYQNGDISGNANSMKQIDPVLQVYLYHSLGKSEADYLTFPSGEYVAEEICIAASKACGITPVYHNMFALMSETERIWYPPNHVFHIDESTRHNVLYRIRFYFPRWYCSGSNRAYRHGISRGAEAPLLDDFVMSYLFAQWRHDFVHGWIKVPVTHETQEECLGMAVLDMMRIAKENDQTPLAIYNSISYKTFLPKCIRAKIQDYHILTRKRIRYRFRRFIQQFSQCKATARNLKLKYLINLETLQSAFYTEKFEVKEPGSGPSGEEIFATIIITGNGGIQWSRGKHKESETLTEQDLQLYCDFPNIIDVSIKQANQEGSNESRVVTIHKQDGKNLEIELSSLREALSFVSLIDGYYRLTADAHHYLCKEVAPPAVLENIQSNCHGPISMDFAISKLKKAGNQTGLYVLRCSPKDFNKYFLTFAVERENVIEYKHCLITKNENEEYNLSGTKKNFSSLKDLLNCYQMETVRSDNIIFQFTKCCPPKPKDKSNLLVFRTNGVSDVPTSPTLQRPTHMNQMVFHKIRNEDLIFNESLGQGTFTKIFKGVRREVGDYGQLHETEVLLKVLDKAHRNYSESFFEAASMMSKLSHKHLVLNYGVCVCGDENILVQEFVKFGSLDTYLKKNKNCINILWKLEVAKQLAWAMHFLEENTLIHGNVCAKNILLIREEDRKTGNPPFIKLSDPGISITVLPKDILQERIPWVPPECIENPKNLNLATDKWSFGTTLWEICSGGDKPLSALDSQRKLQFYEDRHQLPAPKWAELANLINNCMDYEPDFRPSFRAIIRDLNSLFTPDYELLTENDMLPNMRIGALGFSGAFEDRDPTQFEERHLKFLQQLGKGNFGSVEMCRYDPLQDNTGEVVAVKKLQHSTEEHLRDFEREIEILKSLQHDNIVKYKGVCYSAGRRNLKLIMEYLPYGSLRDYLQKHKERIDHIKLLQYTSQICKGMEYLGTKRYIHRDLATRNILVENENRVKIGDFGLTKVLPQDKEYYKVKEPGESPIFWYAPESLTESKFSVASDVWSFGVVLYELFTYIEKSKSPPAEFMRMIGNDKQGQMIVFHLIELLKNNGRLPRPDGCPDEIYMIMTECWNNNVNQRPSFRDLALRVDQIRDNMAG

As a reminder, the inhibition is the relative decrease from the control value, in per cent. With `Cc1ncc(-c2nc(Nc3ccc(C(=O)NCCN4CCCCC4)cc3)ncc2F)n1C(C)C` [Compound 3], the inhibition at 10 µM at CLK1 is 101%; against MAP2K6 (MKK6), 88%; at PTK2B (FAK2) it was 94%; on DYRK3, 93%; against AMPK A2/B1/G1, 94%; at HCK, 48%. The inhibition at 10 µM at CAMK1D (CaMKI delta) turned out to be 59%; against MAPKAPK2, 52%; against PAK3, 37%; against EPHA4, 55%; against CSF1R (FMS), 94%; at STK4 (MST1), 82%. For the same molecule, the inhibition at 10 µM on JAK2 turned out to be 92%.

`Cc1cc(Nc2nc(N)nn2C(=O)NC(C)C)ccc1Cl` [Compound 5]: the inhibition at 10 µM against CLK1 was 10%; at MAP2K6 (MKK6), -1.06%; against PTK2B (FAK2), 23%; against DYRK3, 0.141%; at AMPK A2/B1/G1 it was 29%; on HCK, 16%. Also, the inhibition at 10 µM against CAMK1D (CaMKI delta) was 0.357%; against MAPKAPK2 it was 6.56%; against PAK3, -12%; against EPHA4 it was 10%; on CSF1R (FMS), > 80%; against STK4 (MST1), 65%. Besides, on JAK2, the inhibition at 10 µM is 66%. Besides, the “CSF1R (FMS) % Inhibition” value at CSF1R (FMS) (listed as SN1109056190, 10 µM) is listed as 81%.

With “XMD8-92 [Compound 2, reference compound]”, on CLK1 (10 µM compound, ATP Km app), the “CLK1 % Inhibition” value worked out at 6%. In addition, the “MAP2K6 (MKK6) % Inhibition” value on MAP2K6 (MKK6) amounted to 8%. Besides, the “PTK2B (FAK2) % Inhibition” value on PTK2B (FAK2) (10 µM compound, ATP Km app) was found to be 20%. Besides, the “DYRK3 % Inhibition” value on DYRK3 (10 µM compound, ATP Km app) was determined as 31%. The “AMPK A2/B1/G1 % Inhibition” value at AMPK A2/B1/G1 (10 µM compound, ATP Km app) is on record as 58%. In addition, at HCK (10 µM compound, ATP Km app), the “HCK % Inhibition” value is given as 14%. Also, the “CAMK1D (CaMKI delta) % Inhibition” value on CAMK1D (CaMKI delta) (10 µM compound, ATP Km app) is 19%. In addition, at MAPKAPK2 (10 µM compound, ATP Km app), the “MAPKAPK2 % Inhibition” value was found to be 93%. Further, the “PAK3 % Inhibition” value at PAK3 (10 µM compound, ATP Km app) is recorded as 71%. At EPHA4 (10 µM compound, ATP Km app), the “EPHA4 % Inhibition” value was determined as 19%. Further, the “CSF1R (FMS) % Inhibition” value on CSF1R (FMS) is on record as 29%. The “STK4 (MST1) % Inhibition” value at STK4 (MST1) (10 µM compound, ATP Km app) worked out at 6%. Further, at JAK2 (10 µM compound, ATP Km app), the “JAK2 % Inhibition” value stood at 95%.
